Data on one substance can be found in US11191811B2, “Osteocalcin as a treatment for frailty associated with aging” (THE TRUSTEES OF COLUMBIA UNIVERSITY IN THE CITY OF NEW YORK, priority 2014, dated 2021).

“Also recorded” adds a separate entry of the source.

Data set [1] can be described thus: Osteocalcin in blood of ICV-infused Osteocalcin−/− mice. The format is in vivo, mouse. The settings on record: ICV infusion 10 ng/hour. On the procedure:
For osteocalcin delivery to pregnant mice, IP injections (240 ng/day) were performed as soon as a plug was present daily until delivery (E0.5-E18.5). For osteocalcin or leptin infusion in adult Osteocalcin^−/− or ob/ob mice, pumps (Alzet micro-osmotic pump, Model 1002) delivering osteocalcin (300 ng/hr), leptin (50 ng/hr), or vehicle were surgically installed subcutaneously in the backs of 3-month old mice. For the postnatal rescue of cognitive functions in Osteocalcin^−/− mice, osteocalcin (10 ng/hour) or vehicle were delivered intrasubventricularly (icv) as previously described (Ducy et al., 2000, Cell 100:197-207). Leptin and osteocalcin content in sera and tissues were determined by ELISA.
The pharmacological relevance of this ability of osteocalcin to signal in neurons was established by delivering uncarboxylated osteocalcin through intracerebro-ventricular (ICV) infusions (10 ng/hour) in WT and Osteocalcin^−/− mice. The localization of the cannula was verified by administering methylene blue through these pumps. […] This week-long treatment with uncarboxylated osteocalcin corrected the anxiety and depression features noted in Osteocalcin^−/− mice (FIG. 12A-E). Collectively, the results described herein indicate that osteocalcin alleviates anxiety and depression in the mouse by acting directly in the brain.

Data set [2] can be described thus: Circulating osteocalcin and insulin levels after osteocalcin delivery (ELISA). The format is in vivo, mouse. How it is done:
First, whether a single intraperitoneal injection of uncarboxylated mouse osteocalcin (osteocalcin) (100 ng/g of body weight) immediately before exercise would improve the exercise capacity of 3 month-old WT mice was tested.
To determine if osteocalcin has the same ability in older mice, 12 and 15 month-old mice that have low circulating osteocalcin levels were injected prior to running with 500 ng/g of body weight of osteocalcin in order to raise their circulating levels substantially. […] This was due to an increase in the phosphorylation of Akt, AMPK and HSL, as well as in glucose uptake, that occurred to a greater extent in oxidative muscles that express Gprc6a at the highest level, than in glycolytic muscles (FIG. 31C-F). Whether chronic delivery of osteocalcin through mini-pumps (90 ng/hour) for 28 days would increase muscle function in 9 month old mice that have the lowest circulating osteocalcin levels was also tested. […] This improved ability to perform exercise was caused in part by an increase in the expression in muscle of the fatty acid transporter Fatp1 and an activation of the Akt pathway (FIG. 31H-).
Serum osteocalcin, PINP, CTX, and insulin levels were measured using ELISA assays. Blood glucose level was measured using an Accu-Check glucometer. Urine 3-MHT was measured as previously described (Aranibar et al., 2011, Anal. Biochem. 410:84-91). […]
Background: ELISA stands for enzyme-linked immunosorbent assay.

The next data set relates to C2C12 myoblasts. The experiment in a line: GLUT4 translocation to the plasma membrane (flow cytometry). The format is cell-based. The source says: Rather, it promoted the translocation of GLUT4 to the plasma membrane of C2C12 myoblasts that express both Gprc6a and Glut4. A similar increase in the accumulation of GLUT4 was observed after exercise in WT but not in Gprc6aMck−/− mice (FIG. 26I). Signaling through GPCRs can favor PI3K activation, leading to Akt phosphorylation, an event that favors the translocation of GLUT4 to the plasma membrane (Lopez-Ilasaca et al., 1997, Science 275:394-397). In agreement with this notion, Akt phosphorylation in muscles of Gprc6Mck−/− mice was decreased compared to muscles of control mice after exercise. […]
Glucose and insulin tolerance tests were performed as previously described (Lee et al., 2007, Cell 130:456-469). For in vivo glucose uptake, a bolus of 2-deoxy-d-[^3H]glucose (^3H-2-DG, Perkin Elmer) (10 μCi) was administered before an endurance run. ^3H-2-DG and ^3H-2-DG-6-P content in muscle was determined by liquid scintillation counter and normalized to muscle weight. […] GLUT4 translocation was determined by flow cytometry using an antibody against the extracellular domain of the GLUT4 protein (Santa Cruz, Sc-1606). […] To analyze mitochondrial function, myofibers were treated with three compounds in succession (oligomycin 10 μg/ml, FCCP 200 μM, rotenone 0.2 μM) and OCR was recorded following administration of each of them.
Background: Flow cytometry measures light scatter and fluorescence of single cells or particles in a stream.

The next data set deals with wild-type mice. The experiment in a line: Allergen-triggered asthma-like condition, osteocalcin delivery. The data set is classed as in vivo, mouse. On the procedure: The level of acetylcholine, a neurotransmitter that causes bronchoconstriction, is increased in the lungs but not in the brains of Osteocalcin^−/− and Gprc6a^−/− mice.
When metacholine is administered to the lungs of mice, the lung airways constrict. […] Wild-type mice were treated with an inflammation-increasing agent and developed asthma that included bronchoconstriction and signs of inflammation.

The next data set has as its system muscle. The experiment in a line: S6K phosphorylation and protein synthesis. The settings on record: FIG. 23; for protein synthesis: in muscle. The source says:
FIG. 23. Osteocalcin promotes S6K phosphorylation and protein synthesis.
It has been shown that in muscle osteocalcin favors glucose uptake, glycolysis, fatty acid oxidation, and protein synthesis.

The mark [3] stands for this setting: delivery by nebulization (two weeks).

For the substance “uncarboxylated osteocalcin: Recombinant uncarboxylated mouse osteocalcin, bacterially produced, purified on glutathione beads and cleaved from the GST subunit by thrombin (YLGASVPSPDPLEPTREQCELNPACDELSDQYGLKTAYKRIYGITI)”, the “leakage of the centrally delivered hormone into the general circulation” value in data set [1] is on record as “no leakage”. The circulating osteocalcin levels result in data set [2] (3 month-old WT mice, single i.p. injection 100 ng/g) was “increased”; in data set [2] (mini-pumps 90 ng/hour for 28 days, 9 month old mice), “increased”. In addition, the “translocation of GLUT4 to the plasma membrane” value in the data set on C2C12 myoblasts was “promoted”. Besides, the bronchoconstriction result is listed as “completely rescued” in the data set on wild-type mice (setting [3]) and “did not show a similar effect” in the data set with wild-type mice (osteocalcin delivered to the brains). The “local inflammation / inflammatory signs” value in the data set with wild-type mice (setting [3]) was “without affecting; also recorded: still observed”. Also, the S6K phosphorylation entry in the data set with muscle is on record as “promotes”. Moreover, the protein synthesis result is given as “promotes” in the data set with muscle (listed as Osteocalcin) and “favors” with muscle (listed as osteocalcin).
